The compounds below were run against human NaV1.8 (Homo sapiens (Human), UniProt Q9Y5Y9) (assay: Nav1.8 Qube automated patch-clamp assay). Details: human NaV1.8 stably expressed in HEK 293 cells; automated 384-well patch-clamp; resting or inactivated state not specified.
Type: cell-based
Experimental: Compounds were tested on human NaV1.8 and NaV1.5 channels stably expressed in human embryo kidney (HEK) 293 cells. Sodium current measurements on Qube® were conducted as follows: automated 384-well patch-clamp assays on the Qube® platform (Sophion Biosciences) were used to measure the inhibition of sodium flow through human NaV1.8 and NaV1.5 channels. Whole-cell voltage-clamp recordings were performed in QChips® (Sophion Biosciences) at room temperature. NaV1.8 current measurements on Qube® were obtained as follows: NaV1.8 currents were elicited with a 10 second 1 Hertz (Hz) pulse train from a holding potential of −90 millivolts (mV), delivered to the cells once per minute in the control condition (DMSO only) and after compound addition. The 1 hertz pulse train stimulation consisted of ten test pulses to 10 millivolt (mV) for 20 milliseconds (ms), each of which was followed by a 980 millisecond repolarization to −67 millivolts. At the end of the 10 second pulse train stimulation, a 5 second hyperpolarization step to −100 millivolt (mV) was used to recover NaV1.8 from fast inactivation. The peak currents elicited by the 1st and 10th test pulses were used to determine IC50 values for resting inhibition and inactivated state inhibition. NaV1.5 current measurements on Qube® were obtained as follows: NaV1.5 currents were elicited with a 20 second 3 Hertz pulse train in the control condition (DMSO only) and after compound addition. The pulse train consisted of sixty 20 millisecond test pulses to 0 millivolt from a holding potential of −80 millivolt (mV). The average peak currents elicited by the last 3 test pulses were used to determine IC50 values for NaV1.5 inhibition.
The following buffers were used for the Qube® recordings: External buffer for NaV1.8 Qube® recording: 150 NaCl, 2 CaCl2, 5 KCl, 1 Mg Cl2, 10 HEPES, 12 Dextrose; External buffer for Qube® NaV1.5 recording: 120 N-Methyl-D-Glucamine, 40 NaCl, 1 KCl, 2.7 CaCl2, 5 HEPES, 0.5 MgCl2; and Internal buffer for Qube® recording: 120 CsF, 30 CsCl, 10 EGTA, 5 HEPES, 5 NaF, 2 MgCl2.
For all Qube® experiments offline analysis was used to determine percent inhibition as a function of drug concentration. IC50 values were determined by fitting to the Hill equation.

Chain of human NaV1.8 (Q9Y5Y9 whole entry): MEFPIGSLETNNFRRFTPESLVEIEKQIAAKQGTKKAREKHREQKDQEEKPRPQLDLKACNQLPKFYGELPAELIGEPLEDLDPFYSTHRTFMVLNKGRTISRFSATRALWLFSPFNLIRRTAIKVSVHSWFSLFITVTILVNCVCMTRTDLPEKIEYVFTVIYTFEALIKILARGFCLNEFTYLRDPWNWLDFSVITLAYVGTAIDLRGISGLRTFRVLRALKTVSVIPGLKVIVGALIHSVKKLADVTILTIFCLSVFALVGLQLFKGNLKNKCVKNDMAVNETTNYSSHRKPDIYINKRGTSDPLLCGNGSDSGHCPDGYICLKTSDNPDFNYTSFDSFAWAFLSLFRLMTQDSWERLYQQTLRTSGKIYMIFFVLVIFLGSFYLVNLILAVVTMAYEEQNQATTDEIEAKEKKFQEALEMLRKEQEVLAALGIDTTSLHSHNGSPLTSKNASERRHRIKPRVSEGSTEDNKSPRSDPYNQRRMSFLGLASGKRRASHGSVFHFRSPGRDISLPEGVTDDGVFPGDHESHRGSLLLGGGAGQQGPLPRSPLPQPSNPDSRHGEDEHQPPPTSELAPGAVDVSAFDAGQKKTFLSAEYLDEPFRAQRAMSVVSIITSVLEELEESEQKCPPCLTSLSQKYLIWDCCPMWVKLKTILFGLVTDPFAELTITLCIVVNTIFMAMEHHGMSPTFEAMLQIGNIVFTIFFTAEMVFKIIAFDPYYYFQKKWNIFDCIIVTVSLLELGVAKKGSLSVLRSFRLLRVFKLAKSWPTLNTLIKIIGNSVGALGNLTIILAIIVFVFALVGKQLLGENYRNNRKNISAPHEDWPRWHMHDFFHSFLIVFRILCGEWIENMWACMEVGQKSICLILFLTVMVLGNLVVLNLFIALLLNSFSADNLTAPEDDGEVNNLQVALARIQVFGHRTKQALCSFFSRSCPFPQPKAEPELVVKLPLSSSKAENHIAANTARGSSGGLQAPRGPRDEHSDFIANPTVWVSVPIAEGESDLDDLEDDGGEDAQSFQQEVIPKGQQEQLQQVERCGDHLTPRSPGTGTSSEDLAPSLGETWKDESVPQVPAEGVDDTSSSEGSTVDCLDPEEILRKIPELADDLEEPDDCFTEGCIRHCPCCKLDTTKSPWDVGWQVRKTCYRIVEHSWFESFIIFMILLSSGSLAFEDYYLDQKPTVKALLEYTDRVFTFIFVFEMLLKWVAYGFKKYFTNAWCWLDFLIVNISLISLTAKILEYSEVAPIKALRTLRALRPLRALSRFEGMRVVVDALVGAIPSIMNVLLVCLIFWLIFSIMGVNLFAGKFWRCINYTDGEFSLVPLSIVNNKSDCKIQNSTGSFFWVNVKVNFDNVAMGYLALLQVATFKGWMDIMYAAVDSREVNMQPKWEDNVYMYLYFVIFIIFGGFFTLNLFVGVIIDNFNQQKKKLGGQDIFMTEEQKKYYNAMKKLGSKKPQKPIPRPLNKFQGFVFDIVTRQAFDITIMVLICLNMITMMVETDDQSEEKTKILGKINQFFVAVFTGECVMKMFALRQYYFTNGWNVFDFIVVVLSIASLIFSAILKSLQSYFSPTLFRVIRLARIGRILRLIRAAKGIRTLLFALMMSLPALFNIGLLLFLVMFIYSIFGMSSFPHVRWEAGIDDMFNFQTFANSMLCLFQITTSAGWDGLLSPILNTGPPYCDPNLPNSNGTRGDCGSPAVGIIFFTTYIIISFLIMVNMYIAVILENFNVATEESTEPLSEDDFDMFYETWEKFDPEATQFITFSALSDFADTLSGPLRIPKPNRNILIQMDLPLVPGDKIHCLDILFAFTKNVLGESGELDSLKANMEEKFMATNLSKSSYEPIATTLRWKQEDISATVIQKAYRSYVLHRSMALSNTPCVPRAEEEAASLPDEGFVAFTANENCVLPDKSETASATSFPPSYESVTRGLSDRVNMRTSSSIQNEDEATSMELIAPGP

Row | Structure (SMILES) | IC50 [nM]
1 | O=C1NC[C@@H](C(=O)NC(COc2ccc(C(F)(F)F)nc2)c2ccc(F)c(Cl)c2)N1 (mixture of isomers) [Example 53, (4S)-N-(1-(3-chloro-4-fluorophenyl)-2-((6-(trifluoromethyl)pyridin-3-yl)oxy)ethyl)-2-oxoimidazolidine-4-carboxamide] | 219
2 | O=C1NC[C@@H](C(=O)NC(c2ccc(F)c(Cl)c2F)[C@H]2C[C@H](C(F)(F)F)C2)N1 (single isomer, unassigned) [Example 34A, (S)—N—((R or S)-(3-chloro-2,4-difluorophenyl)(trans-3-(trifluoromethyl)cyclobutyl)methyl)-2-oxoimidazolidine-4-carboxamide] | 3.8
3 | CC(N1CC(C)(C(NC(=O)[C@@H]2CNC(=O)N2)c2ccc(F)c(Cl)c2F)C1)C(F)(F)F (single isomer, unassigned) [Example 65D, (S)—N—((R or S)-(3-chloro-2,4-difluorophenyl)(3-methyl-1-((R or S)-1,1,1-trifluoropropan-2-yl)azetidin-3-yl)methyl)-2-oxoimidazolidine-4-carboxamide] | 7760
4 | CC1(C)CC(C(NC(=O)[C@@H]2CNC(=O)N2)c2ccc(F)c(Cl)c2F)C1 (single isomer, unassigned) [Example 30A, (4S)-N-[(R or S)-(3-chloro-2,4-di-fluoro-phenyl)(3,3-dimethylcyclobutyl)meth-yl]-2-oxoimidazolidine-4-carboxamide] | 4.6
5 | O=C1NC[C@@H](C(=O)NC(CC2CCC(C(F)(F)F)CC2)c2ccc(F)c(Cl)c2F)N1 (single isomer, unassigned) [Example 23D, (S)—N—((R or S)-1-(3-chloro-2,4-difluorophenyl)-2-((cis or trans)-4-(trifluoromethyl)cyclohexyl)ethyl)-2-oxoimidazolidine-4-carboxamide] | 190
6 | O=C1NC[C@@H](C(=O)NC(c2cnc(OC(F)F)nc2)c2ccc(F)c(Cl)c2F)N1 (single isomer, unassigned) [Example 64A, (S)-N-((R or S)-(3-chloro-2,4-difluorophenyl)(2-(difluoromethoxy)pyrimidin-5-yl)methyl)-2-oxoimidazolidine-4-carboxamide] | 79
7 | O=C1NC[C@@H](C(=O)NC(c2ccc(F)c(Cl)c2)c2ccc(F)c(OCC(F)(F)F)n2)N1 (single isomer, unassigned) [Example 11A, (4S)-N-{((R or S)-3-chloro-4-fluorophenyl)[5-fluoro-6-(2,2,2-trifluoro-ethoxy)pyridin-2-yl]methyl}-2-oxoimidazolidine-4-carboxamide] | 50
8 | CC1(C(=O)NC(c2ccc(Cl)cc2)c2ccc(Cl)cc2)NC(=O)NC1=O (single isomer, unassigned) [Example 20B, (R or S)—N-(bis(4-chlorophenyl)methyl)-4-methyl-2,5-dioxoimidazolidine-4-carboxamide] | 9480
9 | O=C1NC[C@@H](C(=O)NC(CCc2ccc(Cl)cc2)c2ccc(F)c(Cl)c2F)N1 (single isomer, unassigned) [Example 52B, (4S)—N—((R or S)-1-(3-chloro-2,4-difluorophenyl)-3-(4-chlorophenyl)propyl)-2-oxoimidazolidine-4-carboxamide] | 4.3
10 | N#Cc1ccc(C(NC(=O)[C@@H]2CNC(=O)N2)c2ccc(F)c(Cl)c2)cc1 (single isomer, unassigned) [Example 18B, (S)-N-((R or S)-(3-chloro-4-fluoro-phenyl)(4-cyano-phenyl)methyl)-2-oxoimidazolidine-4-carboxamide] | 17
11 | N#Cc1cc(C(NC(=O)[C@@H]2CNC(=O)N2)c2ccc(OC(F)(F)F)cc2)ccc1Cl (single isomer, unassigned) [Example 57A, (S)-N-((R or S)-(4-chloro-3-cyanophenyl)(4-(trifluoromethoxy)phenyl)methyl)-2-oxoimidazolidine-4-carboxamide] | 3.5
12 | O=C1NC[C@@H](C(=O)NC(c2cnc(OC(F)F)s2)c2ccc(F)c(Cl)c2F)N1 (single isomer, unassigned) [Example 36A, (S)-N-((R or S)-(3-chloro-2,4-difluorophenyl)(2-(difluoromethoxy)thiazol-5-yl)methyl)-2-oxoimidazolidine-4-carboxamide] | 12
13 | O=C1NC[C@@H](C(=O)NC(c2ccc(F)c(Cl)c2)c2ccn(CC(F)(F)F)n2)N1 (single isomer, unassigned) [Example 28B, (4S)-N-{(R or S)-(3-chloro-4-fluorophenyl)[1-(2,2,2-trifluoroethyl)-1H-pyrazol-3-yl]methyl}-2-oxoimidazolidine-4-carboxamide] | 436
14 | Cn1nc(C(F)(F)F)cc1C(NC(=O)[C@@H]1CNC(=O)N1)c1ccc(F)c(Cl)c1 (single isomer, unassigned) [Example 31B, (S)-N-((R or S)-(3-chloro-4-fluorophenyl)(1-methyl-3-(tri-fluoromethyl)-1H-pyrazol-5-yl)methyl)-2-oxoimidazolidine-4-carboxamide] | 268
15 | O=C1NC[C@@H](C(=O)NC(c2cnc(C(F)(F)F)c(Cl)c2)c2ccc(F)c(C(F)(F)F)n2)N1 (single isomer, unassigned) [Example 14A, (4S)-N-{[(R or S)-5-chloro-6-(trifluoro-methyl)pyridin-3-yl][5-fluoro-6-(trifluoro-methyl)pyridin-2-yl]methyl}-2-oxoimidazolidine-4-carboxamide] | 2.4
16 | CS(=O)(=O)c1ccc(C(NC(=O)[C@@H]2CNC(=O)N2)c2ccc(F)c(Cl)c2)cc1 (single isomer, unassigned) [Example 85A, (S)-N-((R or S)-(3-chloro-4-fluorophenyl)(4-(methylsulfonyl)phenyl)methyl)-2-oxoimidazolidine-4-carboxamide] | 372
17 | CC1(C)CC(C(NC(=O)[C@@H]2CNC(=O)N2)c2ccc(F)c(Cl)c2F)C1 (single isomer, unassigned) [Example 30B, (4S)-N-[(R or S)-(3-chloro-2,4-di-fluorophenyl)(3,3-dimethylcyclobutyl)meth-yl]-2-oxoimidazolidine-4-carboxamide] | 458
18 | O=C1NC[C@@H](C(=O)NC(c2ccc(Cl)cc2)c2ccn3nccc3c2)N1 (single isomer, unassigned) [Example 80B, (S)-N-((R or S)-(4-chlorophenyl) (pyrazolo[1,5-a]pyridin-5-yl)methyl)-2-oxoimidazolidine-4-carboxamide] | 107
19 | Cn1nc(C(NC(=O)[C@@H]2CNC(=O)N2)c2ccc(Cl)cc2)cc1C(F)(F)F (single isomer, unassigned) [Example 75A] | 58
20 | O=C1NC[C@@H](C(=O)NC(c2cnc(OCC(F)(F)F)cn2)c2ccc(F)c(Cl)c2F)N1 (single isomer, unassigned) [Example 51A, N—((R or S)-(3-chloro-2,4-difluorophenyl)(5-(2,2,2-trifluoroethoxy)pyrazin-2-yl)methyl)-2-oxoimidazolidine-4-carboxamide] | 9.2
21 | Cn1nc(C(NC(=O)[C@@H]2CNC(=O)N2)c2ccc(Cl)cc2)cc1C(F)(F)F (single isomer, unassigned) [Example 75B] | 115
22 | O=C1NC[C@@H](C(=O)NC(c2cnc(C(F)(F)F)c(Cl)c2)c2ccc(F)c(Cl)c2F)N1 (single isomer, unassigned) [Example 38, (S)-N-((R or S)-(3-chloro-2,4-difluorophenyl)(5-chloro-6-(trifluoromethyl)pyridin-3-yl)methyl)-2-oxoimidazolidine-4-carboxamide] | 1.1
23 | O=C1NC[C@@H](C(=O)NC(c2ccc(Cl)cc2)c2cccc(OC(F)F)n2)N1 (single isomer, unassigned) [Example 74B, (S)-N-((R or S)-(4-chlorophenyl)(6-(difluoromethoxy)pyridin-2-yl)methyl)-2-oxoimidazolidine-4-carboxamide] | 244
24 | O=C1NC[C@@H](C(=O)NC(c2cnc(C(F)(F)F)c(Cl)c2)c2ccc(F)c(C(F)(F)F)n2)N1 (single isomer, unassigned) [Example 14B, (4S)-N-{[R or S)-5-chloro-6-(trifluoro-methyl)pyridin-3-yl][5-fluoro-6-(trifluoro-methyl)pyridin-2-yl]methyl}-2-oxoimidazolidine-4-carboxamide] | 21
25 | O=C1NC[C@@H](C(=O)NC(c2ccc(F)c(Cl)c2F)C2CCCCN2CC(F)(F)F)N1 (single isomer, unassigned) [Example 58D, (S)-N-((R or S)-(3-chloro-2,4-difluorophenyl) ((R or S)-1-(2,2,2-trifluoroethyl)piperidin-2-yl)methyl)-2-oxoimidazolidine-4-carboxamide] | 787
